# Experimental data from patent publication US6733779B2, “Method of treating benign prostatic hyperplasia and other benign prostate conditions” (priority 1999, dated 2004).
# How the values were obtained:
# [1] = test system: benign prostatic hyperplasia; assay: Clinical treatment of patients with benign prostatic hyperplasia / benign prostate conditions: symptoms and prostate size; type: in vivo, human
# [2] = test system: prostate specific antigen (PSA); assay: Blood PSA level of patients treated orally with Accutane; type: in vivo, human
# [3] = Side effects observed in the treated patients (informal trials)
# Method: The treatment method involves essentially two periods: an initial treatment, and a sustaining treatment. First, in the initial treatment the patients orally administrate an initial dosage about 40 mg of 13-cis-retinoic acid daily for a period from about ten days to about twenty days. Thereafter, the patients orally administrate a sustaining dosage about 40 mg of 13-cis-retinoic acid about every five to seven days in a sustaining period. Typically, the sustaining period is about one year. However, it can be extended longer if extended maintenance is needed.
# In the initial treatment, 40 mg of 13-cis-retinoic acid can be administrated in a single dose, or divided doses. […] The patients can either take one 40 mg capsule, or take two 20 mg capsules daily. The same applies to the dosage in the sustaining treatment. For convenience, the patients can take one 40 mg dose every five to seven days.
# The initial dosage of about 40 mg 13-cis-retinoic acid daily is determined based on average men's body weight of about 160 lbs, i.e. at about 0.25 mg/lb of body weight. For patients who weigh substantially above or less than the average body weight, the dosage described above can be adjusted accordingly. The same principle applies to the sustaining dosage.
# [4] = patients of the informal trials
structure (smiles),measurement,setting,value
"CC1=C(/C=C/C(C)=C/C=C/C(C)=C\C(=O)O)C(C)(C)CCC1 [Accutane, 13-cis retinoic acid]",symptoms,"[1]; Example 1 patient, prostatic enlargement and attenuated urine stream, 40 mg for 14 days, then 40 mg every 5 days",improved steadily
same,palpable size of prostate,"[1]; Example 1 patient, 40 mg for 14 days, then 40 mg every 5 days",decreased in palpable size
same,symptoms,"[1]; Example 2 patient, prostatic enlargement, decreasing urine flow, urgency, nocturia",steady improvement in symptoms
same,symptoms,"[1]; Example 3 patient, chronic prostatitis, after the initial treatment, remained so during the sustaining period",rapidly became symptom free
same,symptoms,"[1]; Example 4 patient, enlarged prostate, urinary tenesmus",readily improved
same,prostate enlargement,"[1]; approximately twelve patients, by examination and the patients' own anecdotal comments",a reduction in prostate enlargement was confirmed
same,"worsening of condition (PSA or hyperplasia), progression to malignancy",[1]; [4],none of the conditions of these patients worsened
same,PSA after treatment,"[2]; Example 1 patient, PSA 4 before, 40 mg orally for 14 days, then 40 mg every 5 days for about one year",less than one
same,PSA after treatment,"[2]; Example 2 patient, PSA 3 before, after 6 months, 40 mg for 14 days, then 40 mg every 5 days",less than one
same,PSA after treatment,"[2]; Example 3 patient, chronic posttraumatic prostatitis, PSA 5 before, 40 mg daily for 14 days, then 40 mg every 5 days",less than 1
same,PSA after treatment,"[2]; Example 4 patient, PSA 4 before, within 6 months, 40 mg per day for 14 days, then 40 mg every 5 days",less than 1
same,blood chemistries,"[3]; Example 1 patient, on sustaining dosage of 40 mg every 5 days",remained normal
same,adverse side effects,"[3]; Example 1 patient, soreness subsided slowly after the sustaining dose was instituted",drying of lips and some musculo-skeletal soreness at sites of old injuries to the fingers and neck
same,adverse side effects,[3]; Example 2 patient,No adverse side effects were observed
same,serious adverse side effects or contra-indications,[3]; [4],no serious adverse side effects or contra-indications of any kind were observed
